Several values for one entry are separate records, joined by “and”; a condition that tells them apart may be missing. Equal entries are not always repeated. Residues, ends and D or L forms follow the SMILES beside them. *: point of attachment. pNA = O=[N+]([O-])c1ccc(N*)cc1; Boc = CC(C)(C)OC(=O)*
How the values were obtained:
Nonstructural protein 3 [1] = molecular target: T1, Nonstructural protein 3 (Zika virus, UniProt A0A024AXB9); assay: Functional biochemical assay to identify treatments for viral infectious disease that targets Zika NS2B-NS3 protease. Utilizing a direct enzyme activity measurement method, reading the fluorescence intensity is used to characterize the relative potency of inhibitors as IC50. Synthetic construct has been made based on Zika virus (strain PRVABC59) by Centre for Medicines Discovery, University of Oxford, and the assay has been performed by Enamine biological services, Bienta Ltd.The protocol is publicly available: dx.doi.org/10.17504/protocols.io.36wgqn273gk5/v1
Nonstructural protein 3 [2] = molecular target: T1, Nonstructural protein 3; assay: Functional biochemical assay to identify treatments for viral infectious disease that targets Zika NS2B-NS3 protease. Utilizing a direct enzyme activity measurement method, reading the fluorescence intensity is used to characterize the relative potency of inhibitors as IC50.; parameters: species or system PRVABC59

T1 sequence (A0A024AXB9 whole entry): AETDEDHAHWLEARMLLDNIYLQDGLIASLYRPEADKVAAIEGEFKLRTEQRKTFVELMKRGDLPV

| Structure (SMILES) | IC50 (Nonstructural protein 3 [1]) | IC50 (Nonstructural protein 3 [2]) |
| --- | --- | --- |
| N=C(N)NCCC[C@H](NC(=O)c1nccs1)C(=O)N[C@@H](CCCCN)C(=O)N[C@@H](C(N)=O)c1ccc(OCc2ccc(C(F)(F)F)cc2)cc1 | 6.21 µM and 4.39 µM and 8.31 µM and 7.7 µM and 6.31 µM and 6.15 µM and 5.91 µM and 5.86 µM and 5.59 µM | – |
| O=C(NC1CCOCC1)[C@H](Nc1ccc2c(c1)CNC2)c1cc(Cl)cc(C2CC2)c1 | 1.02 µM and 0.213 µM | – |
| N#Cc1cccc(-c2nc3c(C(=O)Nc4cccnc4)cc(Cl)cc3[nH]2)c1 | > 25 µM | – |
| N#Cc1cccc(-c2nc3c(C(=O)Nc4ccncc4)cc(Cl)cc3[nH]2)c1 | > 25 µM | – |
| N#Cc1cccc(-c2nc3c(C(=O)NCc4ccccc4)cc(Cl)cc3[nH]2)c1 | > 25 µM | – |
| CCOC(=O)[C@H](Nc1ccc2c(c1)CNC2)c1cc(Cl)cc(C2CC2)c1 | – | 0.064 µM and 0.087 µM |
| O=C(Nc1ccc2c(c1)CNC2)c1ccc2c(c1)C1(CC1)C(=O)N2 | – | 1.77 µM |
| COC1CCN(C(=O)c2ccnc(NC(=O)c3cc(C4CC4)n(C)c3C)c2)CC1 | – | > 25 µM |
| O=C(NCC(F)F)[C@H](Nc1ccc2c(c1)CNC2)c1cc(Cl)ccc1Sc1ccccc1 | – | 0.494 µM |
| CSc1cc2c(cc1NC(=O)c1cc(F)cc3[nH]ncc13)CNC2 | – | 0.047 µM and 0.032 µM |
| CN1CCC[C@H](c2nc3c(C(=O)Nc4ccc5c(c4)CNC5)cc(F)cc3[nH]2)C1=O | – | 0.163 µM |
| Cc1c(C(=O)Nc2cc(C(=O)N3CCC[C@H]3C(N)=O)ccn2)cc(C2CC2)n1C | – | > 25 µM |
| O=C1Cc2c(cccc2C(=O)Nc2ccc3[nH]nnc3c2)N1 | – | > 25 µM |
| CC(C)(C)OC(=O)N1Cc2cc(NC(=O)c3cc(Cl)cc4c3cnn4[C@@H]3CCCCO3)ccc2[C@H]1CO | – | > 25 µM |
| CO[C@]1(C)C(=O)Nc2cc(F)cc(C(=O)Nc3ccc4c(c3)CNC4)c21 | – | 1.19 µM |
| O=C(Nc1ccc2c(c1)CNC2)c1ccc2[nH]cc(C3CCNCC3)c2c1 | – | 0.797 µM and 1.06 µM |
| C[C@]1(OCCCO)C(=O)Nc2cc(F)cc(C(=O)Nc3ccc4c(c3)CNC4)c21 | – | 0.768 µM |
| N#Cc1ccc(-c2nc3c(C(=O)Nc4ccc5c(c4)CNC5)cc(F)cc3[nH]2)cc1 | – | 0.014 µM and 0.013 µM and 0.01 µM |
| O=C(Nc1cc(-c2cccnc2)ccn1)c1cc(C2CC2)[nH]c(=O)c1 | – | > 25 µM |
| CC(C)CO[C@]1(C)C(=O)Nc2cc(F)cc(C(=O)Nc3ccc4c(c3)CNC4)c21 | – | 2.48 µM |
| Cc1cc(C(=O)Nc2ccc3c(c2)CNC3)cc2nn[nH]c12 | – | 3.34 µM |

| Structure (SMILES) | IC50 (Nonstructural protein 3 [1]) | IC50 (Nonstructural protein 3 [2]) |
| --- | --- | --- |
| CC(C)c1nnc(-c2nc3c(C(=O)Nc4ccc5c(c4)CNC5)cc(F)cc3[nH]2)s1 | – | 0.161 µM and 0.559 µM |
| N[C@H]1COC[C@H]1n1cc(C(=O)Nc2cc(-c3cccnc3)ccn2)cn1 | – | > 25 µM |
| CCS(=O)(=O)c1ccc(Cl)cc1[C@H](Nc1ccc2c(c1)CNC2)C(=O)NCC(F)F | – | 0.875 µM |
| Cc1c(C(=O)Nc2cc(C(=O)N3C[C@@H]4[C@H](O)[C@@H]4C3)ccn2)cc(C2CC2)n1C | – | > 25 µM |
| Cc1c(C(=O)Nc2cc(C(=O)N3CC[C@H](C(N)=O)C3)ccn2)cc(C2CC2)n1C | – | > 25 µM |
| Cc1c(C(=O)Nc2cc(C(=O)N3CC4(CCO4)C3)ccn2)cc(C2CC2)n1C | – | > 25 µM |
| O=C1Cc2c(cccc2C(=O)NC2CCC3(CC2)COC3)N1 | – | > 25 µM |
| O=C1Cc2c(cccc2C(=O)Nc2cnc(OC3CCC3)nc2)N1 | – | > 25 µM |
| Cc1c(C(=O)Nc2cc(C(=O)N[C@H]3CCNC3=O)ccn2)cc(C2CC2)n1C | – | > 25 µM |
| Cn1nc([C@H](Nc2cc([C@H]3CCOC3)ccn2)C(F)(F)F)cc1C1CC1 | – | > 25 µM |
| COc1cc(Cl)cc([C@H](Nc2ccc3c(c2)CNC3)C(=O)NCC(F)F)c1 | – | 0.033 µM and 0.021 µM |
| Cc1cc(CN)cc(NC(=O)c2cccc3c2CC(=O)N3)c1 | – | 3.05 µM |
| Cc1c(C(=O)Nc2cc(C(=O)N(C)C3COC3)ccn2)cc(C2CC2)n1C | – | > 25 µM |
| CC(C)n1cnc2cc(C(=O)Nc3ccc4c(c3)CNC4)ccc21 | – | > 25 µM |
| Cc1ccccc1-c1nc2c(C(=O)Nc3ccc4c(c3)CNC4)cc(F)cc2[nH]1 | – | 31 nM (2×) and 18 nM |
| O=C1Cc2c(cccc2C(=O)Nc2ccc(Cl)c(CO)n2)N1 | – | > 25 µM |
| O=C(Nc1ccc2c(c1)CNC2)c1cc(F)cc(-c2cnc3n2CCC3)c1 | – | 0.236 µM |
| N#Cc1cccc(-c2nc3c(C(=O)NCc4ccccn4)cc(Cl)cc3[nH]2)c1 | > 25 µM | – |
| C[C@]1(OCCO)C(=O)Nc2cc(F)cc(C(=O)Nc3ccc4c(c3)CNC4)c21 | – | 1.14 µM |
| O=C(NCC(F)F)[C@H](Nc1ccc2c(c1)CNC2)c1cc(Cl)cc(Cl)c1OCCN1CCOCC1 | – | 0.197 µM |
| Cc1c(C(=O)Nc2cc(C(=O)N3CC[C@H](O)C3)ccn2)cc(C2CC2)n1C | – | > 25 µM |

| Structure (SMILES) | IC50 (Nonstructural protein 3 [1]) | IC50 (Nonstructural protein 3 [2]) |
| --- | --- | --- |
| NCc1ccc(-c2csc3cc(C(=O)Nc4ccc5c(c4)CNC5)ccc23)cc1 | – | 0.888 µM and 0.889 µM |
| O=C1Cc2c(cccc2C(=O)Nc2ccc3c(c2)CNCC3)N1 | – | 3.03 µM |
| CS(=O)(=O)c1cc2c(cc1NC(=O)c1cc(F)cc3[nH]ncc13)CNC2 | – | 0.2 µM |
| N#Cc1cccc(-c2nc3c(C(=O)NCc4cccnc4)cc(Cl)cc3[nH]2)c1 | > 25 µM | – |
| O=C(Nc1ccc2c(c1)CNC2)c1cc(F)cc2[nH]c(-c3cnccc3O)nc12 | – | 0.13 µM |
| CC(C)Oc1ccc(Cl)cc1[C@H](Nc1ccc2c(c1)CNC2)C(=O)NCC(F)F | – | 0.106 µM |
| Cc1cc([C@H](Nc2ccc3c(c2)CNC3)C(=O)NCC(F)F)cc(C(F)(F)F)c1 | – | 0.019 µM and < 0.012 µM |
| O=C(Nc1ccc2c(c1)CN[C@H]2[C@H](O)CO)c1cc(F)cc2[nH]ncc12 | – | 0.241 µM |
| O=C(Nc1ccc2c(c1)CNC2)c1cc(Cl)cc2[nH]c(-c3cccc(F)c3)nc12 | 4.21 µM | – |
| NCCc1cc(C(=O)Nc2cc(-c3cccnc3)ccn2)no1 | – | > 25 µM |
| O=C1Cc2c(cccc2C(=O)Nc2ccc(O[C@H]3CCOC3)nc2)N1 | – | > 25 µM |
| O=C(NCC(F)F)[C@H](Nc1ccc2c(c1)CNC2)c1cc(Br)ccc1OCc1ccccn1 | – | 0.15 µM |
| Cc1c(C(=O)Nc2cc(C(=O)N(C)[C@H]3C[C@H](O)C3)ccn2)cc(C2CC2)n1C | – | > 25 µM |
| Cc1c(C(=O)Nc2cc(C(=O)N3Cc4cn[nH]c4C3)ccn2)cc(C2CC2)n1C | – | > 25 µM |
| Clc1cc(CNc2ccc3c(c2)[C@@H]2CC[C@H]3N2)c2cn[nH]c2c1 | – | > 25 µM |
| O=C1Cc2c(cccc2C(=O)Nc2ccc3c(c2)CNCCO3)N1 | – | 1.48 µM |
| CO[C@H]1CCCN(C(=O)c2ccnc(NC(=O)c3cc(C4CC4)n(C)c3C)c2)C1 | – | > 25 µM |
| Cn1ccc(-c2cc(F)cc(C(=O)Nc3ccc4c(c3)CNC4)c2)cc1=O | – | 0.104 µM |
| CC(=O)N(c1ccc2c(c1)CNC2)[C@H](C(=O)NCC(F)F)c1cc(Cl)cc(C2CC2)c1 | – | 1.93 µM |
| COCCO[C@]1(C)C(=O)Nc2cc(F)cc(C(=O)Nc3ccc4c(c3)CNC4)c21 | – | 3.16 µM |
| O=C(Nc1ccc2c(c1)CNC2)c1cc(F)cc2[nH]c(-c3ccc(F)cc3O)nc12 | – | 0.039 µM and 0.024 µM |

| Structure (SMILES) | IC50 (Nonstructural protein 3 [1]) | IC50 (Nonstructural protein 3 [2]) |
| --- | --- | --- |
| N#Cc1c[nH]c2c(C(=O)Nc3ccc4c(c3)CNC4)cccc12 | – | 0.582 µM |
| O=C1Cc2c(cccc2C(=O)Nc2ccc3c(n2)CNC3)N1 | – | 1.42 µM |
| Cn1nccc1-c1cc(NC(=O)c2cc(F)cc3[nH]ncc23)cc2c1CNC2 | – | 0.042 µM and 0.029 µM |
| O=C(Nc1ccc2c(c1)CNC2)c1cc(Cl)cc2[nH]c(-c3ccccc3)nc12 | 2.52 µM | – |
| CN1CCc2c([nH]c3ccc(C(=O)Nc4ccc5c(c4)CNC5)cc23)C1=O | – | 1.17 µM |
| Cc1[nH]c2c(C(=O)Nc3ccc4c(c3)CNC4)cccc2c1C | – | 1.19 µM |
| C=CC[C@H]1NCc2cc(NCc3cc(Cl)cc4[nH]ncc34)ccc21 | – | > 25 µM |
| Cc1c(C(=O)Nc2cc(C(=O)N3CCOC[C@H](O)C3)ccn2)cc(C2CC2)n1C | – | > 25 µM |
| O=C(O)C[C@H]1NCc2cc(NC(=O)c3cc(Cl)cc4[nH]ncc34)ccc21 | – | 0.952 µM |
| Cc1c(C(=O)Nc2cc(C(=O)N3CCCNC(=O)C3)ccn2)cc(C2CC2)n1C | – | > 25 µM |
| O=C(Nc1ccc2c(c1)CN[C@H]2CO)c1cc(F)cc2[nH]ncc12 | – | 0.125 µM |
| O=C(NCC(F)F)[C@H](Nc1ccc2c(c1)CNC2)c1cc(Cl)ccc1OC[C@H]1CCCO1 | – | 0.129 µM |
| Cc1c(C(=O)Nc2cc(Br)c3c(c2)COC3)cc(C2CC2)n1C | – | > 25 µM |
| O=C1CCc2cc(C(=O)Nc3ccc4c(c3)CNC4)cc(F)c2N1 | – | 1.49 µM |
| CC(C)O[C@]1(C)C(=O)Nc2cc(F)cc(C(=O)Nc3ccc4c(c3)CNC4)c21 | – | 1.26 µM |
| Cc1c(C(=O)Nc2cc(C(=O)N3CC(C(N)=O)C3)ccn2)cc(C2CC2)n1C | – | > 25 µM |
| NCc1csc2cc(C(=O)Nc3cc([C@H]4CCOC4)ccn3)ccc12 | – | > 25 µM |
| CSCC[C@H](NC(=O)OC(C)(C)C)C(=O)N1CCC[C@H]1C(=O)Nc1ccc([N+](=O)[O-])cc1 (Boc-Met-Pro-pNA) | – | > 99.5 µM |
| CSCC[C@H](N)C(=O)N1CCC[C@H]1C(=O)Nc1ccc([N+](=O)[O-])cc1 (H-Met-Pro-pNA) | – | > 99.5 µM |
| O=C(Nc1ccccc1)OCc1ccccc1 [BENZYL PHENYLCARBAMATE] | – | > 100 µM |
| O=C(Nc1ccccc1)Oc1ccccc1 [PHENYL PHENYLCARBAMATE] | – | > 100 µM |

From ChEMBL document CHEMBL5604062, “ASAP - ZIKV NS2B-NS3 protease fluorescence dose response” (2024)
